Source: patent publication US20140256735A1, “METHOD FOR ASSESSING A LIVER OF A PATIENT HAVING A CHRONIC HEPATITIS B VIRUS INFECTION” (PURDUE RESEARCH FOUNDATION, priority 2011, published 2014)

Experiments:
Assay type in all cases: cell-based
Suz12 and Znf198 = test: Immunoblots of Suz12 and Znf198 protein levels in HepAD38 cell lysates; details: HepAD38 cells, day 10 of HBV replication; 500 nM for 24 h; vs. actin
Method: (§1) FIGS. 7A-D show enhanced expression of the Suz12 repressed genes and proliferation genes in the presence of hepatitis B virus replication. […] HepAD38 cells were grown with (+) or without (−) tetracycline for 10 days, i.e. without (−) or with (+) hepatitis B virus replication, respectively. Hepatitis B virus genome equivalents were quantified by real-time PCR of DNA isolated from purified intracellular virions as described (Wang et al., Hepatology, 53:1137-47, 2011). (Left panel) Effect of DMSO addition (5.0 μl) on hepatitis B virus replication. (Right panel) 250 nM or 500 nM BI 2536 dissolved in DMSO (5.0 μl) added on day 8 for 48 h or day 9 for 24 h, as indicated, prior to cell harvesting. Results represent the average of three independent experiments. Error bars indicate+/−standard 1 error of the mean. […] Relative intensity of indicated protein levels was quantified by ImageJ software vs. actin. […] Quantification is relative to GAPDH used as internal control. […]
(§2) Whole cell extract isolated without (−) or with (+) 1 addition of BI 2536 were immunoblotted for hepatitis B virus core antigen, caspase 3 and cleaved/active caspase. […] Expression of viral RNA was quantified by real-time PCR employing primer pairs described by Zhang et al. (Hepatology 53:1476-1485, 2011). […] Quantification of indicated proteins is by ImageJ software vs. actin. […]

[1] = tested on: proliferation gene cluster and Suz12 repressed genes; test: Real-time PCR of proliferation gene cluster and Suz12 repressed genes in HepAD38 cells; details: day 10 of HBV replication, 500 nM for 24 h, relative to GAPDH
Method: FIGS. 7A-D show enhanced expression of the Suz12 repressed genes and proliferation genes in the presence of hepatitis B virus replication. […] HepAD38 cells were grown with (+) or without (−) tetracycline for 10 days, i.e. without (−) or with (+) hepatitis B virus replication, respectively. Hepatitis B virus genome equivalents were quantified by real-time PCR of DNA isolated from purified intracellular virions as described (Wang et al., Hepatology, 53:1137-47, 2011). (Left panel) Effect of DMSO addition (5.0 μl) on hepatitis B virus replication. (Right panel) 250 nM or 500 nM BI 2536 dissolved in DMSO (5.0 μl) added on day 8 for 48 h or day 9 for 24 h, as indicated, prior to cell harvesting. Results represent the average of three independent experiments. Error bars indicate+/−standard 1 error of the mean. […] Relative intensity of indicated protein levels was quantified by ImageJ software vs. actin. A representative experiment is shown from three independent experiments. […] Quantification is relative to GAPDH used as internal control. Results are from three independent RNA isolations. PCR assays were performed in triplicates. Error bars indicate+/−standard error of the mean.
cDNA was synthesized from 2.0 μg total RNA using iSCRIPT cDNA synthesis kit (Bio-Rad). Real-time PCR reactions were performed in triplicates and normalized to GAPDH.
Employing the HepAD38 cell line that supports hepatitis B virus replication following tetracycline removal (Ladner et al., Antimicrobial Agents and Chemotherapy, 41:1715-1720, 1997), viral replication as well as expression of the Suz12-repressed and proliferation cluster genes were quantified 10 days after induction of hepatitis B virus replication (FIG. 7). Also, the effect of Plk1 inhibition on viral replication and expression of the proliferation cluster and Suz12 target genes was investigated. […] Under these conditions of Plk1 inhibition, expression of the proliferation cluster and Suz12-repressed genes on day 10 of hepatitis B virus replication was quantified (FIG. 7C and D). […]

HepAD38 cells = test: Apoptosis in HBV-replicating HepAD38 cells by immunoblot of pro-caspase-3 and caspase-3; details: 250 nM or 500 nM added on day 8 for 48 h or day 9 for 24 h
Source text: Whole cell extract isolated without (−) or with (+) 1 addition of BI 2536 were immunoblotted for hepatitis B virus core antigen, caspase 3 and cleaved/active caspase. […] Expression of viral RNA was quantified by real-time PCR employing primer pairs described by Zhang et al. (Hepatology 53:1476-1485, 2011). Results are the average from two independent WCE preparations. Error bars indicate+/−standard error of the mean. […] Quantification of indicated proteins is by ImageJ software vs. actin. Results are the average from two independent WCE preparations. Error bars indicate+/−standard error of the mean.
Employing the HepAD38 cell line that supports hepatitis B virus replication following tetracycline removal (Ladner et al., Antimicrobial Agents and Chemotherapy, 41:1715-1720, 1997), viral replication as well as expression of the Suz12-repressed and proliferation cluster genes were quantified 10 days after induction of hepatitis B virus replication (FIG. 7). Also, the effect of Plk1 inhibition on viral replication and expression of the proliferation cluster and Suz12 target genes was investigated. […] Under these conditions of Plk1 inhibition, expression of the proliferation cluster and Suz12-repressed genes on day 10 of hepatitis B virus replication was quantified (FIG. 7C and D). Expression of both gene clusters increased in the presence of hepatitis B virus replication (FIG. 7C and D).

hepatitis B virus = test: Hepatitis B virus replication in HepAD38 cells (genome equivalents in intracellular virions, core antigen immunoblots, viral RNA PCR); details: HepAD38 cells without tetracycline 10 days, 250 nM or 500 nM added on day 8 for 48 h or day 9 for 24 h
Method: as §1, §2

Which “protein level of Suz12” value (Suz12 and Znf198) does the source give for `CC[C@@H]1C(=O)N(C)c2cnc(Nc3ccc(C(=O)NC4CCN(C)CC4)cc3OC)nc2N1C1CCCC1` [BI 2536] here?
The value was “increased”.

And the “protein level of Znf198” value (Suz12 and Znf198)?
The value was “increased”.

What about the “expression of the Suz12 repressed genes DKK2, EpCAM and IGFII” value [1] of the same compound?
Its value is “significantly decreased”.

And the “expression of the proliferation genes” value [1]?
The value was “significantly reduced”.

What about the “expression of the Suz12 repressed genes DKK2, EpCAM and IGFII” value ([1]; listed as BI2536) of the same compound?
The value was “significantly reduced”.

And the “apoptosis (levels of pro-caspase-3 and caspase-3)” value (HepAD38 cells)?
Its value is “did not induce apoptosis”.

What about the “hepatitis B virus replication (genome equivalents in purified intracellular virions, core antigen immunoblots, viral RNA PCR)” value (hepatitis B virus) of the same compound?
The value was “suppressed hepatitis B virus replication”.

And the “hepatitis B virus replication (genome equivalents in purified intracellular virions, core antigen immunoblots, viral RNA PCR)” value (hepatitis B virus; listed as BI2536)?
The value was “significantly reduced”.
